Consider one molecule from BindingDB's records for patent US9593123 (Hoffmann-La Roche, 2017).

For the assay, the target named is Cannabinoid receptor 1 (Homo sapiens, UniProt P21554).
Chain of Cannabinoid receptor 1 (P21554 whole entry): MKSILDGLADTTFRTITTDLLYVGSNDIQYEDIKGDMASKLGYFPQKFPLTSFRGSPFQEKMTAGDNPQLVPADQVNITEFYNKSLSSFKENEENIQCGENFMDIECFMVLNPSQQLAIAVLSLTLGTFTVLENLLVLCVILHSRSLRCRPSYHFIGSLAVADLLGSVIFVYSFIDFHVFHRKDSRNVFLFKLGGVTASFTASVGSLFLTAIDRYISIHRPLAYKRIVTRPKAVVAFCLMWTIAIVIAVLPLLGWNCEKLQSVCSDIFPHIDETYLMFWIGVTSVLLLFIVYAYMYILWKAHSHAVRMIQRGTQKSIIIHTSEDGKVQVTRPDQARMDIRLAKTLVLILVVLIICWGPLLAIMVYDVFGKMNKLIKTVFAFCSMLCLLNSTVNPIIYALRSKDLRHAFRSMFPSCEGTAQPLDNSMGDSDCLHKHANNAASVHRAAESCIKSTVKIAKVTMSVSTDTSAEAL

Broadly, the EC50 is the concentration needed to bring the measured effect to its halfway point. Higher therefore signals weaker potency. In the case of `CC(=O)N[C@H]1CCN(c2nc(O[C@@H](C)C(F)(F)F)nc3c2nnn3Cc2ccccc2C(F)(F)F)C1` [US9593123, Example 81], the EC50 is above 10 µM.
